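Step 1: Grow cells in 96-well plates. Step 2: Expose to compound for 48 hours at 5 concentrations. Step 3: Interpolate endpoints linearly; if unreached, use highest concentration. GI50: concentration for 50% inhibition of growth.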 Calls of active or inactive are those of the source. Cut-off read from the data, not from the text of the source: active = GI50 up to about 1.1 µM and inactive = higher.
How the values were obtained:
Test in all cases: DTP human tumour cell line panel, 48 h
786-0 = test system: 786-0
SK-MEL-2 = test system: SK-MEL-2
UACC-257 = test system: UACC-257
LOX IMVI = test system: LOX IMVI
SW-620 = test system: SW-620
HL-60 = test system: HL-60
SF-268 = test system: SF-268
SF-539 = test system: SF-539
OVCAR-4 = test system: OVCAR-4
RPMI-8226 = test system: RPMI-8226
M14 = test system: M14
HCT-15 = test system: HCT-15
EKVX = test system: EKVX
NCI-H226 = test system: NCI-H226
IGROV-1 = test system: IGROV-1
CCRF-CEM = test system: CCRF-CEM
A498 = test system: A498

SMILES	GI50 (786-0)	GI50 (SK-MEL-2)	GI50 (UACC-257)	GI50 (LOX IMVI)	GI50 (SW-620)	GI50 (HL-60)	GI50 (SF-268)	GI50 (SF-539)	GI50 (OVCAR-4)	GI50 (RPMI-8226)	GI50 (M14)	GI50 (HCT-15) [µM]	GI50 (EKVX)	GI50 (NCI-H226)	GI50 (IGROV-1)	GI50 (CCRF-CEM)	GI50 (A498)
COC1(OC)C2(Cl)C(Cl)=C(Cl)C1(Cl)C1C=CC=CC12 (configuration not stated)	> 100 µM (inactive)	24.1 µM (inactive)	> 100 µM (inactive)	40.2 µM (inactive)	95.9 µM (inactive)	55.8 µM (inactive)	> 100 µM (inactive)	> 100 µM (inactive)	> 100 µM (inactive)	39.7 µM (inactive)	57.5 µM (inactive)	54.5	> 100 µM (inactive)	> 100 µM (inactive)	> 100 µM (inactive)	> 10 µM (inactive)	–
Cn1nc(-c2ccccc2)c(C(=O)/C=C/c2ccc(Cl)cc2)c(N2CCOCC2)c1=O	2.87 µM (inactive)	–	–	3.44 µM (inactive)	4.12 µM (inactive)	1.85 µM (inactive)	3.48 µM (inactive)	2.5 µM (inactive)	–	2.34 µM (inactive)	3.98 µM (inactive)	2.74	8.49 µM (inactive)	–	4.22 µM (inactive)	2.45 µM (inactive)	4.22 µM (inactive)
COc1ccc(C(=O)C(C(=O)C(=O)Nc2nc3ccc(OC)cc3s2)c2ccc(OC)cc2)cc1 (configuration not stated)	> 100 µM (inactive)	> 100 µM (inactive)	63.2 µM (inactive)	> 100 µM (inactive)	> 100 µM (inactive)	75.2 µM (inactive)	> 100 µM (inactive)	> 100 µM (inactive)	> 100 µM (inactive)	> 100 µM (inactive)	> 100 µM (inactive)	> 100	> 100 µM (inactive)	> 100 µM (inactive)	> 100 µM (inactive)	> 100 µM (inactive)	> 100 µM (inactive)
CC1(C)CC(/C=C2/OC(=O)c3ccccc32)=C(C(N)=O)C(=O)O1	> 100 µM (inactive)	> 100 µM (inactive)	> 100 µM (inactive)	> 100 µM (inactive)	> 100 µM (inactive)	–	> 100 µM (inactive)	> 100 µM (inactive)	72.1 µM (inactive)	> 100 µM (inactive)	> 100 µM (inactive)	> 100	> 100 µM (inactive)	> 100 µM (inactive)	> 100 µM (inactive)	> 100 µM (inactive)	–
COc1ccc(C(=O)NCCN(C)C)c2nc3ccccc3nc12	9.06 µM (inactive)	4.01 µM (inactive)	3.56 µM (inactive)	2.01 µM (inactive)	2.7 µM (inactive)	–	–	4.57 µM (inactive)	4.09 µM (inactive)	3.21 µM (inactive)	5.37 µM (inactive)	3.66	6.41 µM (inactive)	3.48 µM (inactive)	3.14 µM (inactive)	–	4.21 µM (inactive)
COc1ccc(N2C(=O)[C@@H](N=[N+]=[N-])[C@@H]2[C@H]2COC(C)(C)O2)cc1	> 100 µM (inactive)	> 100 µM (inactive)	> 100 µM (inactive)	–	> 100 µM (inactive)	> 100 µM (inactive)	> 100 µM (inactive)	> 100 µM (inactive)	> 100 µM (inactive)	> 100 µM (inactive)	> 100 µM (inactive)	> 100	> 100 µM (inactive)	> 100 µM (inactive)	> 100 µM (inactive)	> 100 µM (inactive)	–
O=C(Nc1ccccc1C(=O)O)C(=O)C(C(=O)c1ccccc1-c1ccccc1)C1OC(=O)c2ccccc21 (configuration not stated)	18 µM (inactive)	38 µM (inactive)	16.7 µM (inactive)	18.7 µM (inactive)	27.3 µM (inactive)	23.9 µM (inactive)	16.8 µM (inactive)	16.6 µM (inactive)	35 µM (inactive)	25.2 µM (inactive)	17.1 µM (inactive)	16.5	23.4 µM (inactive)	12.5 µM (inactive)	25.6 µM (inactive)	22.1 µM (inactive)	19.3 µM (inactive)
CN(C)CCNC(=O)c1cccc2nc3cc(Cl)ccc3nc12	3.79 µM (inactive)	2.47 µM (inactive)	2.82 µM (inactive)	1.26 µM (inactive)	1.06 µM (active)	3.32 µM (inactive)	–	3.12 µM (inactive)	2.42 µM (inactive)	3.07 µM (inactive)	3 µM (inactive)	2.43	4.25 µM (inactive)	1.64 µM (inactive)	5.25 µM (inactive)	–	1.65 µM (inactive)
c1ccc2cc3[s+]snc3cc2c1	> 100 µM (inactive)	> 100 µM (inactive)	> 100 µM (inactive)	> 100 µM (inactive)	> 100 µM (inactive)	> 100 µM (inactive)	> 100 µM (inactive)	> 100 µM (inactive)	> 100 µM (inactive)	–	> 100 µM (inactive)	> 100	> 100 µM (inactive)	> 100 µM (inactive)	> 100 µM (inactive)	89.7 µM (inactive)	> 100 µM (inactive)
CC(N)Cc1ccc(C(=O)Cl)cc1 (configuration not stated)	> 100 µM (inactive)	> 100 µM (inactive)	> 100 µM (inactive)	> 100 µM (inactive)	> 100 µM (inactive)	–	> 100 µM (inactive)	> 100 µM (inactive)	> 100 µM (inactive)	> 100 µM (inactive)	> 100 µM (inactive)	> 100	> 100 µM (inactive)	–	> 100 µM (inactive)	> 100 µM (inactive)	> 100 µM (inactive)
Nc1ncnc2c1ncn2C1OC(CSCC(F)(F)F)C(O)C1O (configuration not stated)	> 100 µM (inactive)	> 100 µM (inactive)	> 100 µM (inactive)	> 100 µM (inactive)	> 100 µM (inactive)	> 100 µM (inactive)	> 100 µM (inactive)	> 100 µM (inactive)	> 100 µM (inactive)	> 100 µM (inactive)	> 100 µM (inactive)	> 100	> 100 µM (inactive)	> 100 µM (inactive)	> 100 µM (inactive)	–	–
CCCCOCc1cc(CN2CCN(C)CC2)c(O)c2ncccc12	14.6 µM (inactive)	25.3 µM (inactive)	21.1 µM (inactive)	22.1 µM (inactive)	9.89 µM (inactive)	2.13 µM (inactive)	16.2 µM (inactive)	19.4 µM (inactive)	21.5 µM (inactive)	3.29 µM (inactive)	12.5 µM (inactive)	2.77	23.5 µM (inactive)	20.8 µM (inactive)	29.3 µM (inactive)	3.07 µM (inactive)	24.8 µM (inactive)
OCCc1cnco1	> 100 µM (inactive)	–	–	> 100 µM (inactive)	> 100 µM (inactive)	> 100 µM (inactive)	> 100 µM (inactive)	> 100 µM (inactive)	> 100 µM (inactive)	> 100 µM (inactive)	> 100 µM (inactive)	–	> 100 µM (inactive)	> 100 µM (inactive)	> 100 µM (inactive)	> 100 µM (inactive)	–
O=C(O)CNc1c2ccccc2[n+]([O-])c2ccccc12	> 100 µM (inactive)	> 100 µM (inactive)	> 100 µM (inactive)	78.7 µM (inactive)	> 100 µM (inactive)	18.7 µM (inactive)	> 100 µM (inactive)	–	94.2 µM (inactive)	31.8 µM (inactive)	> 100 µM (inactive)	72.1	> 100 µM (inactive)	> 100 µM (inactive)	> 100 µM (inactive)	21.2 µM (inactive)	> 100 µM (inactive)
CC(C)(C)c1ccnc(/N=C2\N/C(=N\c3cc(C(C)(C)C)ccn3)c3ccccc32)c1	19.3 µM (inactive)	56.9 µM (inactive)	23 µM (inactive)	35.9 µM (inactive)	42.7 µM (inactive)	36.3 µM (inactive)	16.3 µM (inactive)	67.1 µM (inactive)	> 100 µM (inactive)	–	32.5 µM (inactive)	24.3	57.9 µM (inactive)	> 100 µM (inactive)	23.1 µM (inactive)	59.4 µM (inactive)	19.9 µM (inactive)
CN1C(=O)C2C3C=C4c5ccccc5N(c5ccccc5)C4(C2C1=O)[C@H]1C(=O)N(C)C(=O)[C@@H]31 (some centres not stated)	> 100 µM (inactive)	> 100 µM (inactive)	> 100 µM (inactive)	> 100 µM (inactive)	> 100 µM (inactive)	> 100 µM (inactive)	> 100 µM (inactive)	–	> 100 µM (inactive)	> 100 µM (inactive)	> 100 µM (inactive)	–	> 100 µM (inactive)	> 100 µM (inactive)	–	> 100 µM (inactive)	> 100 µM (inactive)
CC1(C)C2CCC13CS(=O)(=O)N1O[C@]13C(=O)O2 (some centres not stated)	> 100 µM (inactive)	> 100 µM (inactive)	> 100 µM (inactive)	> 100 µM (inactive)	> 100 µM (inactive)	> 100 µM (inactive)	> 100 µM (inactive)	> 100 µM (inactive)	> 100 µM (inactive)	> 100 µM (inactive)	–	> 100	> 100 µM (inactive)	> 100 µM (inactive)	> 100 µM (inactive)	–	> 100 µM (inactive)
[N-]=[N+]=NC(CBr)c1cn([C@H]2C[C@H](O)[C@@H](CO)O2)c(=O)[nH]c1=O (some centres not stated)	> 100 µM (inactive)	> 100 µM (inactive)	–	> 100 µM (inactive)	> 100 µM (inactive)	> 100 µM (inactive)	–	> 100 µM (inactive)	–	> 100 µM (inactive)	> 100 µM (inactive)	> 100	> 100 µM (inactive)	> 100 µM (inactive)	> 100 µM (inactive)	> 100 µM (inactive)	–

Reference: ChEMBL document CHEMBL1201862, “PubChem BioAssay data set” (2004)
